Measurements from PubChem BioAssay (NCI).
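Where inhibition never reached the appropriate level, the endpoint shown equals the highest concentration tested. Otherwise, values were interpolated linearly from a five-concentration, 48-hour dose response in 96-well plates. GI50 marks 50% less growth. The concentration for full growth arrest is given as TGI.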

These compounds were tested on MDA-MB-468 breast (assay: DTP human tumour cell line panel, 48 h).
Compound `Cc1[nH]c(C(=O)Nc2ccc(C(=O)N3CCNCC3)cc2OC(C)C)c(Cl)c1Cl` has a GI50 of 1670 nM and a TGI of 3180 nM.
Work on `NC(=O)C(Br)CBr` (configuration not stated) yielded a GI50 of 1460 nM and a TGI of 4350 nM.
For `CCN(CC)c1ccc(N=C2C=C(C(=O)Nc3ccc(S(C)(=O)=O)cc3)C(=O)c3ccccc32)c(C)c1`, the GI50 was greater than 100000 nM and the TGI was greater than 100000 nM.
`CC/C=C\C/C=C\C[C@H](O)C/C=C1/C(=O)C=C[C@H]1C/C=C\CCC(=O)OC` showed a GI50 of 1560 nM and a TGI of 4740 nM.
Work on `COc1ccc(Nc2ncccc2/C=C/C(=O)c2cc(OC)c(OC)c(OC)c2)cc1` yielded a GI50 of 1150 nM and a TGI of 2440 nM.
`C[C@@H]1COCCN1c1nc(-c2cnc(N)cc2C(F)F)nc(N2[C@H](C)COC[C@@H]2C)n1` was tested, and the GI50 was 185 nM and the TGI was 1620 nM.
For `Nc1ccc(N=Nc2ccccc2)c(N)n1`, the GI50 was 16200 nM and the TGI was 60900 nM.
With `O=CN1N=C(c2ccc(Nc3ccnc4cc(Cl)ccc34)cc2)CC1c1ccccc1` (configuration not stated) the GI50 was 975 nM and the TGI was 3150 nM.
`Nc1c(C(=O)c2cccc(-c3ccc[n+]([O-])c3)c2)cnn1-c1ccc(F)cc1F` was tested, and the GI50 was greater than 25000 nM and the TGI was greater than 25000 nM.
`COC(=O)Nc1nc2ccc(Oc3ccc(NC(=O)Nc4cccc(Br)c4)cc3)cc2[nH]1` showed a GI50 of 1290 nM and a TGI of 6280 nM.
Work on `CNc1nc(C)c(-c2nc(Nc3cccc(S(N)(=O)=O)c3)ncc2F)s1` yielded a GI50 of 35.4 nM and a TGI of 116 nM.
Compound `O=S1(=O)N(Cc2ccccc2)[C@@H](Cc2ccccc2)C2O[C@H]2[C@H](Cc2ccccc2)N1Cc1ccccc1` (some centres not stated) has a GI50 of 274 nM and a TGI greater than 7500 nM.
`COc1cc2c(cc1OCCCOC1=C=C=C(c3ccc4c(c3)c3cc(-c5ccc(OCCCOc6cc7c(cc6OC)C(=O)N6CCC[C@H]6C=N7)cc5)ccc3n4S(=O)(=O)c3ccc(C)cc3)C=C1)N=C[C@@H]1CCCN1C2=O` showed a GI50 of 1040 nM and a TGI of 3040 nM.
`CCc1ccc(-c2ccc(=O)n(-c3ccc(S(N)(=O)=O)cc3)n2)cc1` was tested, and the GI50 was 3180 nM and the TGI was greater than 100000 nM.
With `NS(=O)(=O)c1ccc(C2C3=C(CCCC3=O)OC3=C2C(=O)c2ccccc2C3=O)cc1` (configuration not stated) the GI50 was 231 nM and the TGI was 671 nM.
`CCN(CC)CCOc1ccc(Nc2ncc3cc(-c4c(Cl)cccc4Cl)c(=O)n(CCOC)c3n2)cc1` showed a GI50 of 1260 nM and a TGI of 3990 nM.
In the case of `Nc1ccccc1NC(=O)CCCCCCC(=O)Nc1ccc2c(c1)/C(=C/c1ccc[nH]1)C(=O)N2`, the GI50 was 1830 nM and the TGI was greater than 100000 nM.
For `Cn1c(=O)c(Oc2cccc(F)c2)cc2cnc(NC3CCOCC3)nc21`, the GI50 was greater than 25000 nM and the TGI was greater than 25000 nM.
`CSc1ccc(-c2cc(-c3ccc(NC(=O)CCCN4CCCC4)cc3)nc(-c3ccc(NC(=O)CCCN4CCCC4)cc3)c2)cc1` showed a GI50 of 1560 nM and a TGI of 3030 nM.
For `C=C1C(=O)O[C@H]2[C@H]1CC/C(CNC(=O)/C=C/c1cccc(OC)c1)=C\CC[C@@]1(C)O[C@@H]21`, the GI50 was 485 nM and the TGI was 2130 nM.
`CCOC(=O)c1c2c(n3ccc(NC(=O)OC(C)(C)C)cc13)C(=O)c1ncccc1C2=O` was tested, and the GI50 was 1330 nM and the TGI was 3820 nM.
`COc1ccc(-c2nsc3c2NC(=O)CC3c2ccc3c(c2)OCO3)cc1` (configuration not stated) showed a GI50 of 612 nM and a TGI of 25900 nM.
Work on `c1cc(C2CCCCC2)ccc1OCCCCCCN1CCNCC1` yielded a GI50 of 1910 nM and a TGI of 3670 nM.
Work on `O=C(Nc1ncc(Cc2ccccc2)s1)c1ccc2c(c1)OCCCO2` yielded a GI50 of 413 nM and a TGI greater than 100000 nM.
`CNC(=O)c1c(NC(=O)c2cccc(C(F)(F)F)c2)sc2c1CCC(=O)C2` gave a GI50 of 396 nM and a TGI of 2300 nM.
`CC1=C(C(=O)Nc2ccc3[nH]ncc3c2)C(c2ccc(F)cc2)NC(=O)N1` (configuration not stated) showed a GI50 greater than 25000 nM and a TGI greater than 25000 nM.
